The source of these data is US20110059909A1, “METHODS FOR TREATING INFLAMMATORY DISORDERS” (priority 2004, published 2011).

In one data set the target is T1, LacCer synthase (GalT-2) (Rattus norvegicus, UniProt O88419).
T1 construct: using cell lysates derived from cells stimulated with LPS/IFNγ; endogenous in cells; host or cells: rat primary astrocytes
T1 sequence (O88419 1-382): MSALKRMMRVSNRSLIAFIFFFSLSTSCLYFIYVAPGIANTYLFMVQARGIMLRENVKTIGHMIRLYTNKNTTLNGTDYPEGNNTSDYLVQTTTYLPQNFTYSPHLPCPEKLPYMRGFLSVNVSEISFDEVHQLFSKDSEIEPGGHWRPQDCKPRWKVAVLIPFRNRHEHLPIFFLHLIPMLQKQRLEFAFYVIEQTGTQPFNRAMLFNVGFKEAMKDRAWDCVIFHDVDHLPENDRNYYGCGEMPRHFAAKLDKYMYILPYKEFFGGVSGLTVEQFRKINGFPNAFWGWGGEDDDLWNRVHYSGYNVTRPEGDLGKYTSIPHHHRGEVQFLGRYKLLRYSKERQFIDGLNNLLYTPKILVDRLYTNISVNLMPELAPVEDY
Nature of the data set: Measurement of [14C]LacCer synthesis in primary astrocytes (HPTLC). The format is cell-based. As for the experimental part:
Cultured cells were incubated in growth medium containing [^14C]galactose (5 μCi/ml) for 24 h as described previously. The medium was removed, and the cell monolayer was washed with sterile PBS. After the stimulation with LPS/IFNγ (1 μg/ml; 10 U/ml) for various durations, cells were then harvested and washed with ice cold PBS and lysed by sonication. 200 μg of protein was used for extraction of lipids using Chloroform:Methanol:HCl (100:100:1). The organic phase was dried under nitrogen. Glycosphingolipids were resolved by high performance thin layer chromatography using chloroform/methanol/0.25% KCl (70:30:4, v/v/v) as the developing solvent. The gel area corresponding to LacCer was scraped, and radioactivity was measured employing “liquiscint” (NEN Life Science Products) as a scintillating fluid.

In a further data set the test system is TNFα. The data set can be described thus: TNFα mRNA in LPS/IFNγ-stimulated primary astrocytes. In kind it is cell-based, rat. The procedure:
(§1) A 20-mer antisense oligonucleotide of the following sequence (5′-CGCTTGAGCGCAGACATCTT-3′, SEQ ID NO:1) targeted against rat lactosylceramide synthase (GalT-2) were synthesized by Integrated DNA Technology. A scrambled oligonucleotide (5′-CTGATATCGTCGATATCGAT-3′, SEQ ID NO:2) was also synthesized and used as control. Cells were counted and plated a day before transfection and the following day were treated with Oligofectamine (Invitrogen)-oligonucleotide complexes (200 nM oligo) under serum free conditions. 48 h following transfection, the protein levels of GalT-2 were analyzed using polyclonal antibodies raised against rat GalT-2 (Abjent Inc., CA). The transfected cells were stimulated with LPS/IFNγ (1 μg/ml) and levels of nitric oxide were checked 24 h following stimulation. iNOS mRNA and protein levels were checked at 6 h and 24 h, respectively, following stimulation of transfected cells.
(§2) 5 μg total RNA was treated with 2 U DNAse I (bovine pancreas, Sigma) for 15 min at room temperature in 18 μl volume containing 1×PCR buffer and 2 mM MgCl2. It was then inactivated by incubation with 2 μl of 25 mM EDTA at 65° C. for 15 min. 2 μl of random primers were added and annealed to the RNA according to the manufacturer's protocol. cDNA was synthesized in a 50 μl reaction containing 5 μg of total RNA and 50-100 U reverse transcriptase by incubating the tubes at 42° C. for 60 min. […]

A further data set deals with IL-1β. The data set can be described thus: IL-1β mRNA in LPS/IFNγ-stimulated primary astrocytes. In kind it is cell-based, rat. As for the experimental part:
as §1, §2

The subject of the next data set is NF-κB. The data set can be described thus: NF-κB DNA binding, electrophoretic mobility shift assay. The format is cell-based, rat. The procedure:
Nuclear extracts from cells (1×10^7 cells) were prepared using a previously published method (Dignam et al., 1983) with slight modifications. Cells were harvested, washed twice with ice-cold TBS, and lysed in 400 μl of buffer A containing 10 mM KCl, 2 mM MgCl2, 0.5 mM dithiothreitol, protease inhibitor cocktail (Sigma), and 0.1% Nonidet P-40 in 10 mM HEPES, pH 7.9 for 10 min on ice. Following centrifugation at 5,000×g for 10 min, the pelleted nuclei were washed with buffer A without Nonidet P-40, and resuspended in 40 μl of buffer B containing 25% (v/v) glycerol, 0.42M NaCl, 1.5 mM MgCl2, 0.2 mM EDTA, 0.5 mM dithiothreitol, and Complete™ protease inhibitor cocktail (Roche) in 20 mM HEPES, pH 7.9 for 30 min on ice. The lysates were centrifuged at 15,000×g for 15 min and the supernatants containing the nuclear proteins were stored at −70° C. until use. Ten μg of nuclear proteins was used for the electrophoretic mobility shift assay for detection of NF-κB DNA binding activities. DNA-protein binding reactions were carried out at room temperature for 20 min in 10 mM Trizma base (pH 7.9), 50 mM NaCl, 5 mM MgCl2, 1 mM EDTA, 1 mM dithiothreitol, 1 μg poly (dI-dC), 5% (v/v) glycerol, and approximately 0.3 pmol of NF-κB probe (Santa Cruz Biotech) labeled with DIG-ddUTP using terminal deoxynucleotidyl transferase (Roche). […]

Setting [1] is: LPS/IFNγ-stimulated astrocytes, 48 h after transfection.

In the case of “AS GalT-2 oligonucleotides: 20-mer antisense oligonucleotide 5′-CGCTTGAGCGCAGACATCTT-3′, SEQ ID NO:1, against rat lactosylceramide synthase (GalT-2) (antisense CGCTTGAGCGCAGACATCTT; chemistry not given here)”, in the data set with LacCer synthase (GalT-2), the “[14C]LacCer biosynthesis following LPS/IFNγ-stimulation” value is “diminished synthesis”. In addition, the “[14C]LacCer synthesis upon TNFα-stimulation” value with LacCer synthase (GalT-2) (TNFα 1 ng/ml) is “diminished synthesis”. The “TNFα mRNA expression” value in the data set on TNFα (setting [1]) is “suppressed”. The “IL-1β mRNA expression” value with IL-1β (setting [1]) is recorded as “suppressed”.
For Lactosylceramide [LacCer], in the data set with TNFα (exogenous LacCer, LPS/IFNγ), the “Reversal of AS-mediated inhibition of TNFα expression” value is reported as “reversed”. In the data set with IL-1β (exogenous LacCer, LPS/IFNγ), the “Reversal of AS-mediated inhibition of IL-1β expression” value was “reversed”. For the same compound, the “Reversal of PDMP-mediated inhibition of NF-κB DNA binding activity” value in the data set on NF-κB (exogenous LacCer) is reported as “reversed”.
Regarding `CCCCCCCCCC(=O)NC(CN1CCOCC1)C(O)c1ccccc1.Cl` [PDMP, D-threo-1-Phenyl-2-decanoylamino-3-morpholino-1-propanol.HCl], at LacCer synthase (GalT-2), the “[14C]LacCer biosynthesis following LPS/IFNγ-stimulation” value is listed as “inhibited this increase”. In addition, in the data set with NF-κB (increasing doses of PDMP, LPS/IFNγ 45 min), the “NF-κB DNA binding activity” value is “inhibited”.
